The target in test [1] is RAF proto-oncogene serine/threonine-protein kinase (Homo sapiens, UniProt P04049). Nature of the test: Inhibition of human C-raf using biotin-MEKl substrate incubated for 1 hr.
For test [2], the target named is T1, Serine/threonine-protein kinase A-Raf (Homo sapiens, UniProt P10398).
T1 sequence (P10398 whole entry): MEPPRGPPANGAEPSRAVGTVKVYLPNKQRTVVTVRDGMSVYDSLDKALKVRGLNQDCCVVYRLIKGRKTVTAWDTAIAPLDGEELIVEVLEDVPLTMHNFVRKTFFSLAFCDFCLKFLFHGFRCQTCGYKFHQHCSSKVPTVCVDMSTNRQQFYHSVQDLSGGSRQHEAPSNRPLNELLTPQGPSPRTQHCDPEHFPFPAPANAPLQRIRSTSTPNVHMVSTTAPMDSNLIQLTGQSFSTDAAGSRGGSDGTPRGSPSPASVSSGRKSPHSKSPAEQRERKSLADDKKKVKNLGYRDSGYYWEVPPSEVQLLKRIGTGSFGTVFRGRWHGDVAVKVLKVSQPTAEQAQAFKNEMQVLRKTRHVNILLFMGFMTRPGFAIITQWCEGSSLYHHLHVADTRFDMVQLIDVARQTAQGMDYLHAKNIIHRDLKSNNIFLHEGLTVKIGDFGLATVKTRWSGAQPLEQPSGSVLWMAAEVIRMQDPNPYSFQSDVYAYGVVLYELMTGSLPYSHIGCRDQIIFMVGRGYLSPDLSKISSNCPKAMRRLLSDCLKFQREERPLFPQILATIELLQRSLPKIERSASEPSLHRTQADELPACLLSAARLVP
Kind of test: Inhibition of A-raf (unknown origin).

In test [3] the target is Serine/threonine-protein kinase B-raf (Homo sapiens, UniProt P15056). Kind of test: Inhibition of N-terminal GST-tagged human recombinant B-Raf (416 to end residues) using biotin-MEKl substrate incubated for 1 hr.
The target in test [4] is Vascular endothelial growth factor receptor 2 (Homo sapiens, UniProt P35968). Kind of test: Inhibition of KDR (unknown origin).
The target of test [5] is Proto-oncogene tyrosine-protein kinase Src (Homo sapiens, UniProt P12931). Kind of test: Inhibition of Src (unknown origin) expressed in Escherichia coli using biotin-(E4Y)3 substrate.
Proto-oncogene tyrosine-protein kinase Src, sequence (P12931 2-536 limits assumed): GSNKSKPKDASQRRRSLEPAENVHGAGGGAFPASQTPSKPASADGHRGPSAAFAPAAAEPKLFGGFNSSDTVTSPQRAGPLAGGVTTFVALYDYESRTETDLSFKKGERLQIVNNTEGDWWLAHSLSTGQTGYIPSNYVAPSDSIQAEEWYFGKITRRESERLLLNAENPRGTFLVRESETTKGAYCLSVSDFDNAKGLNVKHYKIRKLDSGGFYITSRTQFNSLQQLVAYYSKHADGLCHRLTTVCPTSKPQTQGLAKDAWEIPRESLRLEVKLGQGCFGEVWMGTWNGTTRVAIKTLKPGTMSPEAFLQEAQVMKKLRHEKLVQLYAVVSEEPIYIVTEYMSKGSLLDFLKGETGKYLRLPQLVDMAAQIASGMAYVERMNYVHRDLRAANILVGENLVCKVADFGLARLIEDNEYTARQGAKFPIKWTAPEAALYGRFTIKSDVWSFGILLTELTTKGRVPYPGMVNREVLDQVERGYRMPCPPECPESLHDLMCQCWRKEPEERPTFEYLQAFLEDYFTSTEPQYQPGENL

RAF proto-oncogene serine/threonine-protein kinase, sequence (P04049 whole entry): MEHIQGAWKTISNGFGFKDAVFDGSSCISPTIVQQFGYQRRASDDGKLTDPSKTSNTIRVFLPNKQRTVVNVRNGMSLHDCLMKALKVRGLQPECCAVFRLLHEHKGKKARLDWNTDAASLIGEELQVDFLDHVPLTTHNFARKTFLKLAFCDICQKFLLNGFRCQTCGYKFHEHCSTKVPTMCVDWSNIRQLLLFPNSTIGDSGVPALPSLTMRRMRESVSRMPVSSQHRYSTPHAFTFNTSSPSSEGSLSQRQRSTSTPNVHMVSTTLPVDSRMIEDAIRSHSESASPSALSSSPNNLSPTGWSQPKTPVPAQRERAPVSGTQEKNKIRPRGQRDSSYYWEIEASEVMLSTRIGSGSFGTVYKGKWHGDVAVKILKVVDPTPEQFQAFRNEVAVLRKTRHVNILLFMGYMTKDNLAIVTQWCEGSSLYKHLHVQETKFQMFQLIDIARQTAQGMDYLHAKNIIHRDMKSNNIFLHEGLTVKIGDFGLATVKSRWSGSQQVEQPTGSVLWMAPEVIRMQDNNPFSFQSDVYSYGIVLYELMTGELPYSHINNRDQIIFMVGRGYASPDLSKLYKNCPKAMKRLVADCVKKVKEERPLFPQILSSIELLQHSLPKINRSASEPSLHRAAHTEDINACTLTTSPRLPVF
Serine/threonine-protein kinase B-raf, sequence (P15056 whole entry): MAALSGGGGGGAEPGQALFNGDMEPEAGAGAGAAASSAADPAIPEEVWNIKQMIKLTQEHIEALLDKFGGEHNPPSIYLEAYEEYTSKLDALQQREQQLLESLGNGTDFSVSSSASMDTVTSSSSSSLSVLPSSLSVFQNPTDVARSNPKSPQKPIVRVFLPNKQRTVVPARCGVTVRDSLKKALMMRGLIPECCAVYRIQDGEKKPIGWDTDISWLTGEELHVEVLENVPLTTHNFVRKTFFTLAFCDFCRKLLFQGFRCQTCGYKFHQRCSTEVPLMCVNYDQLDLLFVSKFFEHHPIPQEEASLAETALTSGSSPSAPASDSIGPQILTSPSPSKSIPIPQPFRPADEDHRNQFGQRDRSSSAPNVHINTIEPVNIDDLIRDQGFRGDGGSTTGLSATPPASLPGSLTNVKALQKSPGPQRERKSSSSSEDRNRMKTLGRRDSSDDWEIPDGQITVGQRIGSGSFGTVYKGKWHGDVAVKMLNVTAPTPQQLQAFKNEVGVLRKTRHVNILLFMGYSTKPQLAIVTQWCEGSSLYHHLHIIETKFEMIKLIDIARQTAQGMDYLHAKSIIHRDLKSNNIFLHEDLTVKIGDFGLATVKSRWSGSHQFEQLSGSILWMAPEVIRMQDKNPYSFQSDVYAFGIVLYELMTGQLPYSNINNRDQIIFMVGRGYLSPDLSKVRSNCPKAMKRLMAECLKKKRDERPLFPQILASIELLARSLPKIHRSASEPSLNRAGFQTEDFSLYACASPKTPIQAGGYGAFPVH
Vascular endothelial growth factor receptor 2, sequence (P35968 whole entry): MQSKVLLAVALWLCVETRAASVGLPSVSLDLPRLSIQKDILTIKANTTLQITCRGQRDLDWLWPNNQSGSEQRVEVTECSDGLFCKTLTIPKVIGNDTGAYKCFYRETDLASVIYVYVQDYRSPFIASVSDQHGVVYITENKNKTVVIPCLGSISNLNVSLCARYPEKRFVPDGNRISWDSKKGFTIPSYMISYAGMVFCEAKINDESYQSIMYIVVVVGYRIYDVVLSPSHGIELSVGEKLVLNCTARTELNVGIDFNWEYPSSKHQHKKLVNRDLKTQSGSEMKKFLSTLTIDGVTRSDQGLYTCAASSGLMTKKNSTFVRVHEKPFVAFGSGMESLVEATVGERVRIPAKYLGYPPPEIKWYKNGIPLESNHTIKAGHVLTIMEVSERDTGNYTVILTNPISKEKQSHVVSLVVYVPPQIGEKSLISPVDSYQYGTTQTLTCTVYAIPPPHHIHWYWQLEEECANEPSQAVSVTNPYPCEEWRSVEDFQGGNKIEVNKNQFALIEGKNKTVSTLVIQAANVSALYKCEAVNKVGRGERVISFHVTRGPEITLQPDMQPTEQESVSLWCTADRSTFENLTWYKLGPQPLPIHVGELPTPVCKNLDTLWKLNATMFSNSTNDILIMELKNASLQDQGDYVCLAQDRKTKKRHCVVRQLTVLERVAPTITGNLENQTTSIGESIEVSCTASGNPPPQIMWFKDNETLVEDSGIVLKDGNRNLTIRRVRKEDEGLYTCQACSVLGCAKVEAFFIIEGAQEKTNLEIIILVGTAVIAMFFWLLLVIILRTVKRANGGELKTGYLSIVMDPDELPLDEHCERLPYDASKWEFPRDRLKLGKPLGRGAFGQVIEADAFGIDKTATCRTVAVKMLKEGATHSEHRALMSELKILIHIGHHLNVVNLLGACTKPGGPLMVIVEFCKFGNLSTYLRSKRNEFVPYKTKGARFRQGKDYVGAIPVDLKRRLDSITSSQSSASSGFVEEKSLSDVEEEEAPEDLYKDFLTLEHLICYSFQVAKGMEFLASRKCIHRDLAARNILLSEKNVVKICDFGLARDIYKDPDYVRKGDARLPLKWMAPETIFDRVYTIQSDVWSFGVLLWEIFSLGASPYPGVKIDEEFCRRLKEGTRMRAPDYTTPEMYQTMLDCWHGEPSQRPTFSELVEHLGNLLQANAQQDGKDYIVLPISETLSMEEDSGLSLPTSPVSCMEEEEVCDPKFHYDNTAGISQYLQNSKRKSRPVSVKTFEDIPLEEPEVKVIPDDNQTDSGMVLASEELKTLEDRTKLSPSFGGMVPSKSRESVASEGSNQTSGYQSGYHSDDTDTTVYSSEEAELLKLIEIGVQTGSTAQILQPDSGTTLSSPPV

With `CCCS(=O)(=O)Nc1ccc(F)c(C(=O)c2c[nH]c3ncc(Br)nc23)c1F`, the half-maximal inhibitory concentration (IC50) in test [1] and in test [2] was at most 10 µM in each case.

In the case of `CCCS(=O)(=O)Nc1ccc(F)c(C(=O)c2c[nH]c3ncc(-c4cnc(OC)nc4)nc23)c1F`, the IC50 in test [1], in test [2] and in test [3] was at most 10 µM in each case.

For `O=C(c1cccc(NS(=O)(=O)c2ccc(C(F)(F)F)cc2)c1F)c1c[nH]c2nccnc12`, the IC50 in test [1], in test [2] and in test [3] was at most 10 µM each time.

Turning to `CCCS(=O)(=O)Nc1ccc(F)c(C(=O)c2c[nH]c3ncc(-c4cnn(C)c4)nc23)c1F`, the IC50 in test [4] and in test [5] was at most 10 µM each time.

`O=C(c1c(F)ccc(NS(=O)(=O)c2ccc(C(F)(F)F)cc2)c1F)c1c[nH]c2nccnc12`: the IC50 in test [1] and in test [2] was at most 10 µM throughout.

For the molecule `CCCS(=O)(=O)Nc1ccc(F)c(C(=O)c2c[nH]c3nccnc23)c1F`, the IC50 in test [1], in test [2] and in test [3] was at most 10 µM each time.

`CCCS(=O)(=O)Nc1ccc(F)c(C(=O)c2c[nH]c3ncc(C#N)nc23)c1F` yielded an IC50 in test [5] of at most 10 µM.
